Data on two molecules can be found in US20240130988A1, “Use of stilbene compounds in the preparation of anti-tumor drugs” (Guangzhou AnHao Pharmaceutical Technology CO., LTD., priority 2022, published 2024).

Marks after values point to notes of the source that are not given here.

The subject of assay [1] is human liver cancer QGY7703. In words: Human liver cancer QGY7703 transplanted tumor in nude mice. The format is in vivo, BALB/C nude mice. Also on record: key to RTV (d 18): RTV = Vt/Vo, tumor volume relative to volume at grouping (d1). The conditions noted are these: QGY7703, 100 mg/kg iv × 14. On the procedure: A human liver cancer QGY7703 model transplanted into nude mice was used in the experiment to investigate the anti-tumor effect of test compounds. The mice were intravenously injected at a dosage of 100 mg/kg for 14 days, and the tumor inhibition rate against human liver cancer QGY7703 was measured.
(§1) Preparation: The compound was prepared as the injection at the desired concentration with sterile normal saline, prior to administration.
Animal strain: BALB/C nude mice (SPF grade), weight: 19-21 g, gender: male. Number of animals in each treatment group: 8; number of animals in the control group: >12.
The tumor blocks of human liver cancer QGY7703 with good growth were cut into uniform small pieces of 3 mm under sterile conditions, and then subcutaneously inoculated into the right armpit of each mouse with a cannula. These mice were divided into 9 groups, 8 mice for each treatment group, while more than 12 mice were included in the control group.
(§2) 14 days after inoculation, the average volume of the tumor block was about 100 mm^3. The animals were regrouped based on the size of the tumor, and the animals with tumors that were too large and too small were sifted out. For each group, the average volume of tumors was basically the same, and then the mice were initially treated with test compounds. The mice in the treatment groups were intravenously injected once a day for 14 days, at a dosage of 0.1 mL/20 g body weight; the mice in the control group were given the same volume of sterile normal saline. From the 14th day of inoculation, the long diameter a (mm) of the tumor, together with the perpendicular short diameter b (mm), was measured using a digital electronic caliper, twice a week. The calculation formula of tumor volume is: TV=ab^2/2, and the formula for calculating the relative tumor volume is RTV=Vt/Vo, wherein Vo denotes the tumor volume measured when the mice were divided into groups (i.e. d1), and Vt is the tumor volume from each measurement.
(§3) The result determination is based on the following formula: […]

Assay [2] has as its system LLC (mouse lung cancer cells). In words: Enrichment of CD8+ cytotoxic T lymphocytes in tumor tissue, Lewis non-small cell lung cancer model of mice. The format is in vivo. Conditions: 400 mg/kg ip once a day for 10 days, CD8+ immunohistochemistry.
For assay [3], the system named is human renal cell carcinoma AGHN. As to the kind of experiment: Human renal cell carcinoma AGHN transplanted tumor in nude mice. Conditions: 200 mg/kg ip × 14. The format is in vivo, BALB/C nude mice. As for the experimental part:
A human renal cell carcinoma AGHN model transplanted into nude mice was used in the experiment to investigate the anti-tumor effect of test compounds. […] AGHN was measured.
as §1
Animal strain: BALB/C, nude mice (SPF grade), weight: 19-21 g, gender: male. Number of animals in each treatment group: 8; number of animals in the control group: >12.
The tumor blocks of human renal cell carcinoma AGHN with good growth were cut into uniform small pieces of 3 mm under sterile conditions, and then subcutaneously inoculated into the right armpit of each mouse with a cannula. The mice were divided into 9 groups, 8 mice for each treatment group, while >12 mice were included in the control group.
as §2, with “about 100 mm^3, The animals” for “about 100 mm^3. The animals”, “The mice were intraperitoneally” for “The mice in the treatment groups were intravenously”, “mice were intraperitoneally injected once” for “groups were intravenously injected once”, “dosage of 0.2 mL/20 g” for “dosage of 0.1 mL/20 g”, “tumor volume is: RTV=Vt/Vo, wherein” for “tumor volume is RTV=Vt/Vo, wherein”, “and Vt denotes the tumor” for “and Vt is the tumor”
as §3

The subject of assay [4] is nonfusion human umbilical vein endothelial cells (HUVEC). As to the kind of experiment: TMT quantitative proteomics on nonfusion HUVEC. The format is cell-based. The conditions noted are these: 10 μM; for Differentially expressed proteins: more than 1.5 times or less than 0.67 times vs control; for Down-regulation / Up-regulation: number of proteins. On the procedure:
Nonfusion human umbilical vein endothelial cells (HUVEC) were used to simulate new tumor blood vessels, while confluent HUVECs were used to simulate normal blood vessels, to construct experimental models. Two different HUVECs were treated with the compound at the same dosage of 10 μM, to simulate the fusion cell state, and proteome samples were prepared. After preparation of peptide segments, the segments were labelled with TMT, and a quantitative proteomics analysis was carried out. The efficiency of TMT labeling was higher than 99.4%, and a total of 28372 peptide segments from 4934 proteins were characterized using a strict 1% FDR limit. Among them, 4909 quantifiable proteins were identified, indicating reliable quality. The nonfusion treatment groups and the fusion treatment groups were compared with their respective control groups, and the control group was used as a reference, with a significant difference of more than 1.5 times or less than 0.67 times as the protein score standard.
The total cell proteins of the samples in nonfusion cell groups and fusion cell groups were extracted separately, and 2 μg of protein samples were subjected to quality analysis, The quantitative proteomics experiments were carried out, and the protein concentration assay was performed by quantitative grayscale measurement.
Data analysis: The human protein database (Scientific name: Homo sapiens, 9606) was downloaded from UniProt, MaxQuant (v 1.5.5.1) search engine was used to search for the database. A total of 4934 proteins (4909 quantitative proteins) and 28372 peptide segments were identified by TMT quantitative proteomics experiments, with a labeling efficiency of more than 99%, and the complete digestion occupied 86.3%.

Assay [5] concerns LLC (mouse lung cancer cells). As to the kind of experiment: Enrichment of CD8+ cytotoxic T lymphocytes in tumor tissue, Lewis non-small cell lung cancer model of mice. The format is in vivo. Conditions: 400 mg/kg ip once a day for 10 days, flow cytometry. On the procedure: LLC (mouse lung cancer cells) were a mouse Lewis lung cancer cells.
The modeling method for LLC cell lung cancer in mice was as follows:
LLC cells were cultured in the general medium containing 10% fetal bovine serum and 100 μg/mL of double antibody (penicillin±streptomycin), and then cultivated in a 37° C., 5% CO2 cell incubator for routine incubation. LLC cells, that had grown to logarithmic phase, were digested with 0.25% trypsin (containing EDTA) to form a cell suspension, which was centrifuged at 1000 rpm/min for 3 min. The supernatant was discarded, and cell precipitates were collected, that were resuspended in culture medium without serum and double antibody. The cell suspension was further centrifuged to adjust the volume under the same conditions with the aid of cell counting, so as to prepare a cell suspension at a concentration of […] was injected into the right abdomen of each mouse, to complete the inoculation of tumor cells. The tumor was allowed to grew about 10 days, and the volume reached around 100 mm^3, before the mice were treated with test compounds.
Drug preparation: compounds 1-13 of the present invention were respective prepared into an injection with injection water.
Experimental methods: The model mice with LLC cell lung cancer were treated by intraperitoneal administration of 400 mg/kg injection containing the compound of the present invention. The model mice were divided into a negative control group (model mice only receiving equal volume of injection water by intraperitoneal administration) and treatment groups (model mice receiving the injection prepared with the compound of the present invention by intraperitoneal administration). The intraperitoneal injection regimen was carried out by injecting once a day at the pre-determined time. Before administration, the mice were weighed, and then treated with the injection at a dosage of 10 mL/kg, After successive administration for 10 days, that is, on the 10th day after receiving treatment, the mice were sacrificed, and the subcutaneous tumors were stripped to detect the ratio of cytotoxic T lymphocyte antigen CD8^+ in tumor tissues of the negative group and the treatment group by flow cytometry.
CD8^+ tumor-infiltrating lymphocytes in tumor tissues were detected by flow cytometry. The specific steps were as follows:
The mice were sacrificed, and then the abdominal epidermis of the mice was cut open using ophthalmic scissors, to fully expose the subcutaneous tumors. The subcutaneous tumor tissues on the right side of the mouse's abdomen were gradually peeled off with tweezers and ophthalmic scissors. After rinsing with PBS, the stripped tumor tissues were cut into about 1 mm using ophthalmic scissors, and then placed in 3 mL of PBS buffer containing 100 μg/mL of hyaluronidase. A centrifuge tube containing a dispersed liquid was placed in a water bath and kept at 37° C. for 20 min. A pipette was used to blow and shake the digestive tumor tissues every 5 minutes to fully digest. The dispersed liquid containing undigested tumor tissues was filtered through a 70 μm stainless steel cell screen, and the remaining undigested tumor tissues were ground using a push rod of 20 mL syringe on 70 μm cell screen and rinsed 5 times with 1 mL of PBS while grinding. The cell suspension passing the cell screen was transferred to a 15 mL centrifuge tube, and centrifuged at 4000 rpm for 3 min. Then, cell precipitates were collected, to which was added 2 mL of red cell lysis buffer, and rested for 10 min, followed by centrifuging at 4000 rpm for 3 min. After washing with PBS, the cells were resuspended by adding 2-3 mL of PBS.
An appropriate amount of cell suspension was used as the sample for flow cytometry, and after counting, the cell suspension was adjusted to have a concentration of 5×10^6/mL. 100 μL of cell suspension was added to a test tube with a pipettor. […]

The test system of another assay is human lung cancer A549. In words: Human lung cancer A549 transplanted tumors in nude mice. The class given is in vivo, BALB/C nude mice. Conditions: A549, 400 mg/kg ig × 14. On the procedure:
In this experiment, a human lung cancer A549 model transplanted into nude mice was selected to study the anti-tumor effect of test compounds. The mice were treated at a dosage of 400 mg/kg by gavage for 14 days, and the tumor inhibition rate against human lung cancer A549 was measured.
Preparation: The compound was prepared as the solution at the desired concentration with distilled water, prior to administration.
Animal strain: BALB/C nude mice (SPF grade), weight: 19-21 g, gender: male. Number of animals in each treatment group: 8; Number of animals in the control group: >12.
Lung cancer A549 tumor blocks with good growth were chosen and cut into uniform small pieces of 3 mm under sterile conditions, and then subcutaneously inoculated into the right armpit of each mouse with a cannula. These mice were divided into 9 groups, 8 mice for each treatment group, while more than 12 mice were included in the control group.
14 days after inoculation, the average volume of the tumor mass was about 100 mm^3. The animals were regrouped based on the size of the tumor, and the mice with tumors that were too large and too small were eliminated. For each group, the average volume of tumors was basically the same, and then the mice were treated with test compounds. The mice in the treatment groups were administered once a day by gavage for 14 successive days, at a dosage of 0.5 mL/20 g body weight; the mice in the control group were given the same volume of physiological saline. From the 14th day of inoculation, the long diameter a (mm) of the tumor, together with the perpendicular short diameter b (mm), was measured using a digital electronic caliper, twice a week. The calculation formula of tumor volume is: TV=ab^2/2, and the formula for calculating the relative tumor volume is RTV=Vt/Vo, wherein Vo denotes the tumor volume measured when the mice were divided into groups (i.e. d1), and Vt is the tumor volume from each measurement.
as §3

Assay [6] relates to human ovarian cancer A2780. As to the kind of experiment: Human ovarian cancer A2780 transplanted tumor in nude mice. The class given is in vivo, BALB/C nude mice. Conditions: A2780, 200 mg/kg ip × 14. As for the experimental part: A human ovarian cancer A2780 model transplanted into nude mice was used in the experiment to investigate the anti-tumor effect of test compounds.
as §1
Animal strain: BALB/C nude mice (SPF grade), weight: 19-21 g, gender: male.
Number of animals in each treatment group: 8; number of animals in the control group: >12.
The tumor blocks of human ovarian cancer A2780 growing well were cut into uniform small pieces of 3 mm under sterile conditions, and then subcutaneously inoculated into the right armpit of each mouse with a cannula. The mice were divided into 9 groups, 8 mice for each treatment group, while >12 mice were included in the control group.
as §2, with “mice” for “mice in the treatment groups”, “intraperitoneally” for “intravenously”, “0.2” for “0.1”
as §3

Regarding `COc1ccc(/C=C(/C(=O)O)c2cc(OC)c(OC)c(OC)c2)c(OC)c1O` [Compound 12, (E)-3-(3-hydroxy-2,4-dimethoxyphenyl)-2-(3,4,5-trimethoxyphenyl)acrylic acid], the inhibition in vivo at 100 mg/kg in assay [1] (Mus musculus, QGY-7703, read-out: Tumor inhibitory rate %) turned out to be 62.2%. Moreover, the “RTV (d 18)” value in assay [1] was found to be 4.86 ± 0.59. Also, in assay [2], the “The ratio of distribution area in tumor tissues (%)” value was 5.883 ± 0.6723%. Further, in assay [3], the “RTV (d 18)” value is reported as 5.62 ± 0.59 and the “Tumor inhibitory rate %” value is listed as 58.48^## %. In addition, in assay [4], the Differentially expressed proteins was found to be 322, the Down-regulation amounted to 314 and the Up-regulation is given as 8. In assay [5], the “The ratio of CD8^+ in total immune cells of tumor tissues (%)” value is listed as 0.0753 ± 0.0103%.

With `CCOc1ccc(/C=C(/C(=O)O)c2cc(OC)c(OC)c(OC)c2)cc1O` [Compound 13, (E)-3-(4-ethoxy-3-hydroxyphenyl)-2-(3,4,5-trimethoxyphenyl)acrylic acid], the “The ratio of distribution area in tumor tissues (%)” value in assay [2] is listed as 6.547 ± 0.5843%. Further, the “RTV (d 22)” value in the assay with human lung cancer A549 was 3.83 ± 0.64. Also, in the assay with human lung cancer A549 (Mus musculus, po, read-out: Tumor inhibitory rate %), the inhibition in vivo at 400 mg/kg worked out at 67.4%. In assay [4], this molecule had a Differentially expressed proteins of 319, a Down-regulation of 312 and an Up-regulation of 7. Further, the “The ratio of CD8^+ in total immune cells of tumor tissues (%)” value in assay [5] was found to be 0.0723 ± 0.0126%. In assay [6], the “RTV (d 18)” value is reported as 4.78 ± 0.83 and the “Tumor inhibitory rate %” value is given as 53.64^## %.
